# Laboratory results as given in PMC10224031, “Arylimidamides Have Potential for Chemoprophylaxis against Blood-Transmitted Chagas Disease” (Pathogens, 2023).
# Where “and” joins values, the source holds several entries; their conditions need not be identical. Identical values can stand only once. Like-named read-outs stand apart in the source and are kept apart here. Marks after values point to notes of the source that are not given here.
# What was measured:
# [1] = tested on: T. cruzi bloodstream trypomastigotes; test: In vivo infectivity in Swiss mice of blood samples infected with bloodstream trypomastigotes pre-treated with AIAs or CV; set-up: species or system Trypanosoma cruzi; conditions: for suppression of the parasite load (parasitemia): both genders; for Clearance of the Parasitemia / Clearance of the Parasitemia after cyclophosphamide administration: cleared mice/total
# Experimental: Male and female Swiss Webster mice (18–20 g) were obtained from the Fundação Oswaldo Cruz animal facilities (ICTB, Rio de Janeiro, Brazil). Mice were housed at a maximum of five per cage, kept in a specific pathogen-free (SPF) room at 20 to 24 °C under a 12-h/12 h light/dark cycle and provided sterilized water and chow ad libitum. The animals were allowed to acclimate for 7 days before the start of the experiments.
# For evaluation of the chemoprophylactic potential of the AIAs and CV in vivo, the mice were inoculated (via i.p.) with 10^4 trypomastigotes into 200 µL of: (a) infected untreated blood samples; (b) infected using blood samples pre-treated for 2 h with the compounds at a concentration corresponding either to their EC50 or with 96 µM of one of the AIAs.
# Parasitemia of individual mice was daily checked (until 10 dpi, and then, twice a week) by direct microscopic counting of parasites in 5 µL of blood taken via tail prick. Body weight was evaluated weekly, and mortality was checked daily until 40 days post-treatment and expressed as the percentage of survival. Thirty days after treatment the animals were immunosuppressed with cyclophosphamide (50 mg/kg) in three cycles of 4 consecutive days/week and the parasitemia and mortality rates were evaluated for 4 weeks.
# [2] = tested on: bloodstream trypomastigotes of Trypanosoma cruzi; conditions: cited from earlier work; for fold more effective than crystal violet (trypanocidal activity): 4 °C in the presence of 96% mouse blood
# mouse blood cells = type: cell-based; conditions: Swiss Webster, 24 h
# Experimental: In 96-well microplates, 100 µL of the mouse blood suspension was added to the same volume of DB745 or DB766 at concentrations ranging from 2.4 to 192 µM. After incubation at 4 °C for 24 h, the samples were centrifuged (5 min/540× g) and a 100 µL aliquot was transferred to another microplate and the levels of hemoglobin measured at 540 nm. Deionized water was used as control for 100% hemolytic activity, and PBS as a negative control. The degree of hemolysis was calculated by the variation index (VI) that corresponds to the ratio of optical density (OD) of the treated sample/positive control. The reading of the OD of the samples was performed in the SpectraMax® Plus 384 Absorbance Plate Reader spectrophotometer (540 nm) and duplicate samples were run in at least two assays.
# [3] = tested on: bloodstream trypomastigotes (BT) of Trypanosoma cruzi; test: In vitro infectivity of bloodstream trypomastigotes pre-treated with AIAs in cardiac cell cultures; type: cell-based; conditions: for Par./Infected CC / II (infection index = % infection × parasites/infected CM) / % Infection: BT pre-treated 2 h at EC50 (DB745 6.4 μM, DB766 1.14 μM)
# Experimental: Bloodstream trypomastigote (BT) forms of the Y strain were obtained from infected male Swiss mice, at peak parasitemia. The purified parasites were resuspended in Dulbecco’s modified Eagle’s medium (DME) supplemented with 10% FBS (DMES). […] Then, the parasite suspensions were centrifuged (3000 rpm/10 min) and the pellet resuspended in RPMI, quantified through light microscopy, and used for the infection of Swiss embryo mouse cardiac cell cultures (CC) seeded (15 × 10^4 cells/well) in 24-well plates (10:1 parasite–cell ratio). After 24 h of parasite–host cell interaction, the infected cultures were washed to remove free parasites and maintained at 37 °C in an atmosphere of 5% CO2 and air and the culture medium replaced every 24 h. Afterwards, untreated and treated infected cardiac cells (CCs) were fixed and stained with Giemsa and examined via light microscopy. Only characteristic T. cruzi nuclei and kinetoplasts were counted as surviving parasites since irregular structures could mean parasites undergoing death. The activity of the AIAs was estimated by calculating the infection index (II), which corresponds to the percentage of infected cells multiplied by the average number of intracellular parasites per infected host cell. Duplicate assays were run in the same plate and at least two independent assays were performed as standard.
# [4] = experiment # 1, inoculum pre-treated 2 h at 96 μM, male Swiss mice, n = 5, vehicle 261.1 ± 124.6
# [5] = experiment # 1, inoculum pre-treated 2 h at EC50, male Swiss mice, n = 5, vehicle 261.1 ± 124.6
# [6] = experiment # 1, pre-treatment at 96 μM
# [7] = experiment # 1, pre-treatment at EC50
# [8] = experiment # 2, inoculum pre-treated 2 h at 96 μM, male Swiss mice, n = 5, vehicle 277.9 ± 57.2
# [9] = experiment # 2, inoculum pre-treated 2 h at EC50, male Swiss mice, n = 5, vehicle 277.9 ± 57.2
# [10] = experiment # 2, pre-treatment at 96 μM
# [11] = experiment # 2, pre-treatment at EC50
# [12] = female Swiss mice, n = 10, inoculum pre-treated at 96 µM, vehicle 247.7 ± 25.3
# [13] = female mice, 96 µM, untreated 0%
# [14] = male Swiss mice, n = 10, inoculum pre-treated at 96 µM, vehicle 209.8 ± 29.2
# [15] = 24 h of parasite-host cell interaction, untreated 23.4 ± 5.5
# [16] = 2 h incubation, infected mouse blood, read-out: EC50
Structure (SMILES),suppression of the parasite load (parasitemia) ([1]; 96 µM) [%],"Parasitemia at 8 dpi [1, 4]","Parasitemia at 8 dpi [1, 5]","Clearance of the Parasitemia [1, 6]","Clearance of the Parasitemia [1, 7]","Parasitemia at 8 dpi [1, 8]","Parasitemia at 8 dpi [1, 9]","Clearance of the Parasitemia [1, 10]","Clearance of the Parasitemia [1, 11]","Parasitemia at 8 dpi [1, 12]","Clearance of the Parasitemia after cyclophosphamide administration ([1]; female Swiss mice, 96 µM)","animal survival [1, 13] [%]","Parasitemia at 8 dpi [1, 14]","Clearance of the Parasitemia after cyclophosphamide administration ([1]; male Swiss mice, 96 µM)","animal survival ([1]; male mice, 96 µM, untreated 0%) [%]",fold more effective than crystal violet (trypanocidal activity) [2],OD (mouse blood cells; 3.9 μM),VI (variation index = OD(treated)/OD(control)) (mouse blood cells; 3.9 μM),OD (mouse blood cells; 10.6 μM),VI (variation index = OD(treated)/OD(control)) (mouse blood cells; 10.6 μM),other results
CC(C)Oc1cc(NC(=N)c2ncccn2)ccc1-c1ccc(-c2ccc(NC(=N)c3ncccn3)cc2OC(C)C)o1 [DB1831],> 99,0.0 ± 0.0 ×10^4 Parasites/mL,366.2 ± 295.1 ×10^4 Parasites/mL,2/5,0/5,0.0 ± 0.0 ×10^4 Parasites/mL,157.7 ± 55.9 ×10^4 Parasites/mL,4/5,0/5,0.1 ± 0.5 10^4 parasites/mL,2/10,100,0.0 ± 0.0 10^4 parasites/mL,7 out of 10 and 7/10,90,at least 30 fold,,,,,"infected mice with complete clearance of parasitemia ([1]; 96 µM, even after immune suppression with cyclophosphamide): 60%; animal survival ([1]; 96 µM, vehicle treated samples 0%): ≥ 90%; EC50 ([2]; used as inoculation pre-treatment concentration (Table 3 footnote a), read-out: EC50/2 h): 500 nM"
CCOc1cc(NC(=N)c2ccccn2)ccc1-c1ccc(-c2ccc(NC(=N)c3ccccn3)cc2OCC)o1 [DB745],,4.6 ± 2.4 ×10^4 Parasites/mL,156.4 ± 31.1 ×10^4 Parasites/mL,0/5,0/5,1.3 ± 1.1 ×10^4 Parasites/mL,4.2 ± 2.1 ×10^4 Parasites/mL,0/5,0/5,,,,,,,at least 30 fold,0.215 ± 0.037,0.082,0.184 ± 0.014,0.070,"OD (mouse blood cells; 1.2 μM): 0.220 ± 0.063; VI (variation index = OD(treated)/OD(control)) (mouse blood cells; 1.2 μM): 0.084; OD (mouse blood cells; 32 μM): 0.195 ± 0.007; VI (variation index = OD(treated)/OD(control)) (mouse blood cells; 32 μM): 0.074; OD (mouse blood cells; 96 μM): 0.206 ± 0.004; VI (variation index = OD(treated)/OD(control)) (mouse blood cells; 96 μM): 0.078; Par./Infected CC ([3]; 24 h, untreated 1.6 ± 0.5): 1.4 ± 0.3; II (infection index = % infection × parasites/infected CM) ([3]; 24 h, untreated 38 ± 16): 10 ± 4.4; % Infection [3, 15]: 7.3 ± 3.4 %; Par./Infected CC ([3]; 72 h, untreated 17.7 ± 1.7): 18.6 ± 2.4; % Infection ([3]; 72 h, untreated 26.3 ± 2.3): 14.6 ± 0.2%; II (infection index = % infection × parasites/infected CM) ([3]; 72 h, untreated 466 ± 49): 272 ± 39; effect on parasite multiplication (parasites per infected host cell) ([3]; BT pre-incubated at EC50): only slightly impaired the parasite multiplication; reduction of parasitemia peak ([1]; inoculum pre-treated at EC50, male Swiss mice): > 98%; EC50 [2, 16]: 6400 nM"
CC(C)Oc1cc(NC(=N)c2ccccn2)ccc1-c1ccc(-c2ccc(NC(=N)c3ccccn3)cc2OC(C)C)o1 [DB766],,7.9 ± 5.2 ×10^4 Parasites/mL,141.3 ± 152.7 ×10^4 Parasites/mL,0/5,0/5,0.7 ± 1.1 ×10^4 Parasites/mL,170.5 ± 39 ×10^4 Parasites/mL,0/5,0/5,,,,,,,at least 30 fold,0.248 ± 0.018,0.094,0.200 ± 0.034,0.076,"OD (mouse blood cells; 32 μM): 0.230 ± 0.051; VI (variation index = OD(treated)/OD(control)) (mouse blood cells; 32 μM): 0.088; OD (mouse blood cells; 96 μM): 0.317 ± 0.069; VI (variation index = OD(treated)/OD(control)) (mouse blood cells; 96 μM): 0.121 *; Par./Infected CC ([3]; 24 h, untreated 1.6 ± 0.5): 0.5 ± 0.7; II (infection index = % infection × parasites/infected CM) ([3]; 24 h, untreated 38 ± 16): 0.5 ± 2.1; decrease in number of parasites per infected host cell ([3]; 24 h of CC infection, BT pre-incubated at EC50): 69%; % Infection [3, 15]: 1% and 1.0 ± 1.5 %; Par./Infected CC ([3]; 72 h, untreated 17.7 ± 1.7): 0.3 ± 0.4; % Infection ([3]; 72 h, untreated 26.3 ± 2.3): 0.1% and 0.1 ± 0.2%; II (infection index = % infection × parasites/infected CM) ([3]; 72 h, untreated 466 ± 49): 0.03 ± 0.2; decrease in number of parasites per infected host cell ([3]; 72 h of CC infection, BT pre-incubated at EC50): 98%; reduction in the II ([3]; BT pre-incubated at EC50): > 99%; EC50 [2, 16]: 1140 nM"
"CN(C)c1ccc(C(=C2C=CC(=[N+](C)C)C=C2)c2ccc(N(C)C)cc2)cc1 [CV, crystal violet, reference compound]",> 99,34.7 ± 38.5 ×10^4 Parasites/mL,,0/5,,1.6 ± 1.7 ×10^4 Parasites/mL,,0/5,,0 ± 0 10^4 parasites/mL,3/10,90,0.1 ± 0.2 10^4 parasites/mL,4/10,60,,,,,,
